Assay results: patent publication US20160129044A1, “USE OF MESOTHELIAL CELLS IN TISSUE BIOENGINEERING AND ARTIFICIAL TISSUES” (FUNDACION PÚBLICA ANDALUZA PROGRESO Y SALUD, priority 2013, published 2016)

System: adipose tissue mesothelial cells (ATMCs)
Test: Epithelial-to-mesenchymal transition (EMT) of cultured adipose tissue mesothelial cells: morphology, α-SMA/F-actin immunofluorescence, Western blot
Format: cell-based, mouse
Conditions: hydrocortisone 1 μg/ml; ATMCs cultured 3 days; basal media or 20 ng/ml EGF
Protocol: A total number of 3.5×10^5 ATMCs was seeded in each well of a 6 wells culture dishes (140685, Nunclon™ Δ Surface) into 1.5 ml of a culture media that we termed MRPM (Mesothelial Retaining Phenotype Media). […] Dev Dyn 236: 2973-2979) which are components of the fetal bovine serum (FBS). […] Concentration in viable ATMCs was assessed with a Neubaeur haemocytometer by using the trypan blue exclusion test and was adjusted to a final concentration of 1.6×10^6 cells/ml. […] The mesothelial phenotype of ATMCs cultured for 48 hours in MRPM into hydrophilic p-Dish as well as mesothelialized HALC cultures was analyzed with immunofluorescence. […] Fluorescence images were captured with an inverted fluorescence microscope Olympus IX71 as described above. Quantification of α-SMA immunofluorescence expression was performed with the use of the Meta Imaging Software MetaMorph Offline version 7.5.1.0 (MDS Analytical technologies, USA). For each immunofluorescence image, were calculated the average values of specific Hoechst 33342 and Alexa 488 nm fluorescence emitted by the cells. Specific fluorescence was obtained after eliminating the average values of background fluorescence emitted by 3 areas lacking cells. Hoechst 33342 and Alexa 488 nm fluorescence were further divided between each other to obtain a relative index of marker expression (arbitrary units). […]

## C[C@]12CCC(=O)C=C1CC[C@@H]1[C@@H]2[C@@H](O)C[C@@]2(C)[C@H]1CC[C@]2(O)C(=O)CO [Hydrocortisone, hydrocortisone]
  Effect on Serum- and EGF-induced EMT of ATMCs (α-SMA expression, immunofluorescence and Western blot): inhibits Serum- and EGF-induced EMT
